Assay [1] has as its system denuded aortic rings, GC A receptor. Description: Relaxation of noradrenaline constricted endothelium-denuded aortic rings (Example 11). The following applies: GC-A mediated. More on the design: species or system rat. The procedure, abridged: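 Endothelium-denuded thoracic aortic rings (5 mm) from male Sprague Dawley rats were held at 10 g tension in carbogenated physiological salt solution at 37 °C. Denudation was confirmed by under 10% ACh (10 μM) relaxation after phenylephrine (0.3 μM). Rings constricted with noradrenaline, scaled to 40 mM KCl contraction, were relaxed with increasing peptide doses, with at least 3 rings per peptide.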

The next assay relates to CHF-induced sheep. Kind of assay: Ovine model of tachycardia induced congestive heart failure (Example 9). The assay is classed as in vivo. The text has this: All procedures conform with the Guide for the Care and Use of Laboratory Animals published by the US National Institutes of Health (NIH Publication No. 82-23, revised 1996). Six adult crossbred sheep (weight, 50 to 55 kg) were implanted with pacemakers under isoflurane anesthesia and oxygen. A bipolar screw fixation ventricular pacing lead was placed transvenously under fluoroscopic guidance in the apex of the right ventricle. The proximal end of the lead was connected to pacemakers reprogrammed for high-rate pacing (Sigma, Medtronic) that were positioned subcutaneously in the lateral aspect of the neck. Oxytetracycline (5 mL), an antibiotic, and flunixin meglumine (1 mL), an analgesic, were administered subcutaneously prophylactically on the day of surgery. After 3 days of recovery, right ventricular pacing was initiated at 180 bpm and continued for 4 weeks to induce CHF (NYHC III). Animals were anesthetized and an echocardiographic examination and a conductance catheter evaluation were performed.
Animals were randomized to either TNPc or ANP on two consecutive days, according to the schedule in Table 11B. Studies were conducted over a period of 4 days with two study groups.
On the day of the first experiment, after a control period in which baseline measurements were made, drug infusion via a fore-leg vein using new calibrated Terumo syringe pumps was commenced (TNPc or ANP randomized to days 1 or 2) at 2, 4 and 6 pmol/min/kg, each for 30 min. Echocardiographic and conductance catheter evaluations were performed at 30 min after each drug level. On the second day, the experiment was repeated with the other drug (either TNPc or […] according to day 1 treatment) at 2, 4 and 6 pmol/min, each for 30 min and echocardiographic and conductance catheter evaluations were performed at 30 min after each drug level. The animal was euthanased at the conclusion of the experiment. Stock solutions of each peptide were made up under sterile conditions using sterile saline, were protected from light with aluminium foil and kept refrigerated.
Left ventricular (LV) ejection fraction was monitored by echocardiography and the conductance catheter was used to measure LV dP/i, LV end diastolic pressure, LV ESPVR, heart rate and mean arterial pressure (MAP). Values were expressed as mean +/−SEM and were analyzed by Students t-test. A value of p<0.05 was considered significant.

The structures appear in SMILES notation. Where “and” joins values, the source holds several entries; their conditions need not be identical. Equal values may be shown once. Positions of bridges follow the written chain, without caps; N, C: chain ends. Residues, ends and D or L forms follow the SMILES beside them.

In the case of `CC[C@H](C)[C@H](NC(=O)[C@H](CCCCN)NC(=O)[C@H](CO)NC(=O)[C@H](CC(=O)O)NC(=O)[C@@H](N)CO)C(=O)NCC(=O)N[C@@H](CC(N)=O)C(=O)NCC(=O)N[C@H]1CSSC[C@@H](C(=O)N[C@@H](CC(N)=O)C(=O)N[C@@H](CCCNC(=N)N)C(=O)N[C@H](C(=O)N[C@@H](CCSC)C(=O)N[C@@H](CCC(N)=O)C(=O)N[C@@H](CC(N)=O)C(=O)N2CCC[C@H]2C(=O)N2CCC[C@H]2C(=O)N[C@@H](CCCCN)C(=O)N[C@@H](CCCCN)C(=O)N[C@@H](Cc2ccccc2)C(=O)N[C@@H](CO)C(=O)NCC(=O)N[C@@H](CCC(=O)O)C(=O)O)[C@@H](C)CC)NC(=O)CNC(=O)[C@H](CC(C)C)NC(=O)CNC(=O)[C@H](CO)NC(=O)[C@H](C(C)C)NC(=O)[C@H](CO)NC(=O)CNC(=O)[C@H]([C@@H](C)CC)NC(=O)[C@H](CCCNC(=N)N)NC(=O)[C@H](CC(=O)O)NC(=O)[C@H](CC(C)C)NC(=O)[C@@H]2CCCN2C(=O)[C@H](Cc2ccccc2)NC(=O)CNC(=O)[C@H](Cc2ccccc2)NC1=O` [TNPc] (H-SDSKIGNGCFGFPLDRIGSVSGLGCNRIMQNPPKKFSGE-OH; disulfide 9-25), in assay [1], the “Mean relaxation SEM of denuded aortic rings expressed as % of KCl response” value is recorded as 55.0 ± 10.7%. Further, the “reduction of −dp/dt” value with CHF-induced sheep (TNPc infusion) was 27%. For the same compound, in the assay with CHF-induced sheep (high dose infusion), the “+dP/dt” value was 1078.00, the EDP is listed as 4.17, the ESPR slope is given as 3.78 and the ejection fraction is 61.83. Besides, in the assay with CHF-induced sheep (high dose infusion), the heart rate is on record as 100.67 and the “−dP/dt” value came to 1298.00. Besides, in the assay with CHF-induced sheep (low dose infusion), the “+dP/dt” value was 1079.67, the EDP was 5.83, the ESPR slope was found to be 2.72 and the ejection fraction is recorded as 48.17. In the assay on CHF-induced sheep (low dose infusion), the heart rate was determined as 98.00 and the “−dP/dt” value was determined as 1469.50. For the same compound, in the assay with CHF-induced sheep (recovery (30 min)), the “+dP/dt” value is listed as 1064.83, the EDP is reported as 7.67, the ESPR slope came to 3.35 and the ejection fraction amounted to 42.33. For the same compound, in the assay with CHF-induced sheep (recovery (30 min)), the heart rate came to 98.00 and the “−dP/dt” value is 1201.50.
On to `CC[C@H](C)[C@@H]1NC(=O)[C@H](CCCNC(=N)N)NC(=O)[C@H](CC(=O)O)NC(=O)[C@H](CCSC)NC(=O)[C@H](CCCNC(=N)N)NC(=O)CNC(=O)CNC(=O)[C@H](Cc2ccccc2)NC(=O)[C@@H](NC(=O)[C@H](CO)NC(=O)[C@H](CO)NC(=O)[C@H](CCCNC(=N)N)NC(=O)[C@H](CCCNC(=N)N)NC(=O)[C@H](CC(C)C)NC(=O)[C@@H](N)CO)CSSC[C@@H](C(=O)N[C@@H](CC(N)=O)C(=O)N[C@@H](CO)C(=O)N[C@@H](Cc2ccccc2)C(=O)N[C@@H](CCCNC(=N)N)C(=O)N[C@@H](Cc2ccc(O)cc2)C(=O)O)NC(=O)CNC(=O)[C@H](CC(C)C)NC(=O)CNC(=O)[C@H](CO)NC(=O)[C@H](CCC(N)=O)NC(=O)[C@H](C)NC(=O)CNC1=O` [hANP, reference compound], for which the “Mean relaxation SEM of denuded aortic rings expressed as % of KCl response” value in assay [1] was 66% and 66.5 ± 2.3%. Besides, in the assay on CHF-induced sheep (high dose infusion), the “+dP/dt” value was 1047.00, the EDP was determined as 3.33, the ESPR slope was 3.04 and the ejection fraction came out at 54.50. In addition, in the assay on CHF-induced sheep (high dose infusion), the heart rate was 96.33 and the “−dP/dt” value stood at 1332.17. Also, in the assay with CHF-induced sheep (low dose infusion), the “+dP/dt” value is on record as 949.33, the EDP is 5.83, the ESPR slope amounted to 2.85 and the ejection fraction was 42.17. Besides, in the assay with CHF-induced sheep (low dose infusion), the heart rate is 91.00 and the “−dP/dt” value came out at 1336.50. In the assay on CHF-induced sheep (recovery (30 min)), the “+dP/dt” value is on record as 1035.83, the EDP came to 6.33, the ESPR slope is given as 3.44 and the ejection fraction is 41.00. Moreover, in the assay with CHF-induced sheep (recovery (30 min)), the heart rate worked out at 91.00 and the “−dP/dt” value was found to be 1232.17.

The values above are taken from patent publication US8058242B2, “Chimeric proteins with natriuretic activity” (The University of Queensland, priority 2004, dated 2011).
